Test results from patent publication US4738979A, “α2 -blocking derivatives of imidazole” (G. D. Searle & Co., priority 1985, dated 1988).

What was measured:
α2 -adrenergic receptors = molecular target: T1, α2 -adrenergic receptors (Cavia porcellus, UniProt Q60474); experiment: α2 antagonist and α2 agonist activity in isolated guinea pig ileum (clonidine); settings: for EC50: 50% of maximum inhibition obtained with clonidine, read-out: α2 Agonist Activity (-log ED50) (converted); for Kb: versus clonidine, read-out: α2 Antagonist Activity (pA2) (converted)
T1 construct: from tissue; host or cells: isolated guinea pig ileum
T1 sequence (Q60474 1-464): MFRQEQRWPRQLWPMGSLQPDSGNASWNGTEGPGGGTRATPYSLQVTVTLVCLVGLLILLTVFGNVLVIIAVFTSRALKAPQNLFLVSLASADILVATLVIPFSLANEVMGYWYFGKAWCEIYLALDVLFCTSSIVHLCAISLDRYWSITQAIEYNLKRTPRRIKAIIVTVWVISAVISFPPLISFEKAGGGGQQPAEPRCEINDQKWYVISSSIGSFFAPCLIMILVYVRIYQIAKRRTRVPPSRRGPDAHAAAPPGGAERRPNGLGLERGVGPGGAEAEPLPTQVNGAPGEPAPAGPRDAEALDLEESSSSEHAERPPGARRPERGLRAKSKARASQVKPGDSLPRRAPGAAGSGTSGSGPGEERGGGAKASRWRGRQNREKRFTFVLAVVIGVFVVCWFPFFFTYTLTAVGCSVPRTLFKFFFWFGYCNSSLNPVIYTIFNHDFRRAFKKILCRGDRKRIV
Experimental: The α2 antagonist and α2 agonist activity of the compounds according to the invention was determined upon isolated organs according to a model described by G. M. Drews, Br. J. Pharmaco., 64, 293-300 (1978).
This model is based upon the principle that the stimulation of the cholinergic nervous transmissions of the guinea pig ileum causes the liberation of acetyl choline, which in turn causes contractions of the ileum.
The stimulation of the α2 -adrenergic receptors inhibits the activity of the cholinergic nerve and consequently reduces all response resulting from a timulation of the latter. Thus the contractions of the ileum induced by electric stimulation of the tissue are inhibited by clonidine, an α2 agonist, in proportion to the dose. This inhibition is specifically displaced by the α2 antagonists and not by the α1 antagonists.
The method utilized can be summarized as follows: three dose-response curves to clonidine are established at an interval of 60 minutes. Two concentrations of the product to be tested are added successively 10 minutes before the realization of the second and third clonidine curves. Next, after washing, a dose-response curve is established with the product to be tested.
The dose-response curves are calculated as a percentage of the maximum inhibition obtained for the first curve. In this system the products having an α2 antagonist activity displace the dose-response curve to clonidine. The α2 antagonist activity, expressed in pA2 value, shown in column 4, is calculated according to J. M. Van Rossum, Arch. Int. Pharmacodyn., 143, 299-300 (1963).
A reduction of the contractions induced by the tested product alone indicates an α2 agonist effect. This activity is expressed in--log ED50 (the--logarithm of the concentration of the product giving 50% of the maximum inhibition obtained with clonidine).
The higher the pA2 value, the higher the α2 antagonist activity; the higher the--log ED50 value (i.e., the pA2 agonist activity), the higher the α2 agonist activity.

[1] = acute toxicity after oral administration to mice (LD50); settings: mouse, in vivo, 15 days mortality
Experimental: The acute toxicity of the compounds of the present invention was studied after oral administration to mice. The products to be tested, suspended in a 1% tragacanth gum mucilage, were administered by means of an intragastric probe to groups of three male mice which had fasted since the preceding day. The doses tested are a function of the effect observed and can vary from 3,000 to 3 mg/kg or less. The mortality was recorded for 15 days. The lethal dose for 50% of the animals (LD50) was calculated according to the method of J. Litchfield and F. Wilcoxon, J. Pharmacol. Exp. Ther., 96, 99 (1949) and expressed in mg/kg. The effect of the products on the behaviour of the animals is observed until 5 to 6 hours after the treatment indicated above and after 24 hours, using a method derived from that of S. Irwin, described by R. A. Turner, Screening Methods in Pharmacology, Chapter 3, pages 22-34, Academic Press, 1965. If anomalies are noted, the observation is prolonged and smaller doses are tested.

[2] = system: bicuculline-induced tonic extension in mice; experiment: protection against bicuculline-induced tonic extension in mice; format: in vivo; settings: Mus musculus, iv, 3 hours prior to bicuculline 0.7 mg/kg i.v., read-out: Anticonvulsive effect (versus Bicuculline) (% Protection)
Experimental: In the second study the anti-convulsant effect of the compounds of the present invention was examined in two seizure models; bicuculline-induced tonic extension in mice and 3-mercaptopropionic acid (3-MPA)-induced tonic extension in mice.
In the bicuculline study, the ability of the compounds of the present invention to protect against tonic extension (involving rigidity) was evaluated as follows. Each test compound was administered to a group of ten mice at a dose of 10 mg/kg, 3 hours prior to the i.v. administration of bicuculline (0.7 mg/kg). Anticonvulsant activity in this test is expressed as percentage of animals tested. The results are given in Table II, column 6, and indicate that several compounds display significant anticonvulsive activity in this test. The anticonvulsant effect of the compounds has also been tested with respect to the tonic extension induced by 3-mercaptopropionic acid (120 mg/kg subcutaneously) in mice.

[3] = system: α2 adrenergic receptors of the central nervous system; experiment: inhibition of the antihypertensive action of clonidine in spontaneously hypertensive rats (SHR); format: in vivo, rat; settings: 1 mg/kg p.o., clonidine 50 μg/kg s.c.
Experimental: In the first study, carried out upon unanaesthetized spontaneously hypertensive rats (SHR rats), the ability of the compounds of the present invention to inhibit the antihypertensive action of clonidine was determined.
The antihypertensive activity of clonidine results from an interaction with α2 adrenergic receptors of the central nervous system, i.e., central antihypertensive actions.
In this test, two groups of SHR rats are utilized as follows. In the first group, prior to subcutaneous administration of clonidine (50 μg/kg), the SHR rats are treated with the compound to be tested (1 mg/kg p.o.) dissolved in a saline vehicle. The second group (control group) of SHR rats are treated with the saline vehicle only, prior to subcutaneous administration of clonidine.
The arterial pressure is measured in the region of the median coccygeal artery according to the method of J. Roba, A. F. DeSchaepdrijver, Exp. Anim., 4, 147-162 (1971).
The results of this assay summarized in Table II, column 5, are expressed as a percentage of inhibition of the effect of clonidine.

| Compound | EC50 (α2 -adrenergic receptors) [µM] | Kb (α2 -adrenergic receptors) [µM] | LD50 at 360 h [1] [mg/kg] | responders at 10 mg/kg [2] [%] | α2 Antagonist (% Inhibition of the Antihypertension of Clonidine) [3] [%] |
| --- | --- | --- | --- | --- | --- |
| c1ccc(C(Cc2c[nH]cn2)c2ccccc2)cc1 [Compound 1, 4(5)-(2,2-diphenylethyl)-imidazole] | 3.16 | 0.00501 | 155 | 0 | 50 |
| CC(c1c[nH]cn1)C(c1ccccc1)c1ccccc1 (centres unmarked) [Compound 4] | > 3.16 | 0.316 | > 300 | 40 | 68 |
| Cc1cccc(C(Cc2c[nH]cn2)c2ccccc2)c1 (centres unmarked) [Compound 9, 4(5)-{[2-(3-methylphenyl)-2-phenyl]ethyl}imidazole] | 2.51 | 0.0158 | 155 | 20 | 92 |
| Cc1ccccc1C(Cc1c[nH]cn1)c1ccccc1 (centres unmarked) [Compound 12] | 3.98 | 0.0126 | 155 | 50 | 78 |
| Clc1ccccc1C(Cc1c[nH]cn1)c1ccccc1 (centres unmarked) [Compound 13, 4(5)-{[2-(2-chlorophenyl)-2-phenyl]ethyl}imidazole] | 3.16 | 0.01 | 172 | 20 | 46 |
| Fc1ccc(C(Cc2c[nH]cn2)c2ccccc2)cc1 (centres unmarked) [Compound 14, 4(5)-{[2-(4-fluorophenyl)-2-phenyl]ethyl}imidazole] | 6.31 | 0.0158 | 155 | 0 | 82 |
| Fc1ccc(C(Cc2c[nH]cn2)c2ccccc2F)cc1 (centres unmarked) [Compound 15, 4(5)-{[2-(2-fluorophenyl)-2-(4'-fluorophenyl)]ethyl}imidazole] | 5.01 | 0.0158 | 155 | 0 | 75 |
| Cc1ccc(C)c(C(Cc2c[nH]cn2)c2ccccc2)c1 (centres unmarked) [Compound 16] | 2 | 0.1 | > 300 | 20 | 69 |
| COc1ccc(C(Cc2c[nH]cn2)c2ccccc2)cc1 (centres unmarked) [Compound 17, 4(5)-{[2-(4-methoxyphenyl)-2-phenyl]ethyl}imidazole] | 10 | 0.0126 | 350 | 10 | 26 |
| Cc1ccc(C(Cc2c[nH]cn2)c2ccccc2)cc1 (centres unmarked) [Compound 21] | 5.01 | 0.0251 | 350 | 50 | 48 |
